The text below walks through data of patent US11331351B2, “Bacillus strains improving health and performance of production animals” (priority 2015, dated 2022).

Experiment [1] deals with B. subtilis DSM 29871. To be noted: EFSA Journal 2012; 10(6): 2740; cited from earlier work.
Experiment [2] relates to B. amyloliquefaciens DSM 29869. To be noted: EFSA Journal 2012; 10(6): 2740; cited from earlier work.
The subject of experiment [3] is B. subtilis DSM 29870. As to conditions: EFSA Journal 2012; 10(6): 2740; cited from earlier work.
Experiment [4] relates to B. amyloliquefaciens DSM 29869. Format: cell-based, Bacillus amyloliquefaciens. As to conditions: for MIC: Bacillus amyloliquefaciens.
The subject of experiment [5] is B. subtilis DSM 29870. Format: cell-based, Bacillus subtilis. As to conditions: for MIC: Bacillus subtilis.
The test system of experiment [6] is B. subtilis DSM 29871. Format: cell-based, Bacillus subtilis. To be noted: for MIC: Bacillus subtilis.
The subject of experiment [7] is Clostridium perfringens. It is filed as in vivo, broiler chickens Cobb×Cobb. As to conditions: bacitracin 50 ppm; for Lesion score (d 21): 0 to 3 score; for BWG (g/bird) (d 1-d 28) / Dead birds with necrotic enteritis lesions (%) (d 1-d 28) / FCR (d 1-d 28) / Total mortality (%) (d 1-d 28): infected.
The mark [8] stands for this setting: DSM29869, biological replicate MIC 1, 37° C., 20-24 h, read-out: MIC 1.
Where [9] appears, read: DSM29869, biological replicate MIC 2, 37° C., 20-24 h, read-out: MIC 2.
The mark [10] stands for this setting: DSM29869, biological replicate MIC 3, 37° C., 20-24 h, read-out: MIC 3.
Setting [11] is: DSM29870, biological replicate MIC 1, 37° C., 20-24 h, read-out: MIC 1.
Setting [12] is: DSM29870, biological replicate MIC 2, 37° C., 20-24 h, read-out: MIC 2.
Where [13] appears, read: DSM29870, biological replicate MIC 3, 37° C., 20-24 h, read-out: MIC 3.
The mark [14] stands for this setting: DSM29871, biological replicate MIC 1, 37° C., 20-24 h, read-out: MIC 1.
Where [15] appears, read: DSM29871, biological replicate MIC 2, 37° C., 20-24 h, read-out: MIC 2.
Where [16] appears, read: DSM29871, biological replicate MIC 3, 37° C., 20-24 h, read-out: MIC 3.
[17] abbreviates: biological replicate MIC 1, 37° C., 20-24 h.
The mark [18] stands for this setting: Trial 1, DSM 29870 1.10^9 CFU/kg of feed.
Setting [19] is: Trial 2, DSM 29870 5.10^8 CFU/kg of feed.
[20] abbreviates: Trial 3, DSM 29870 5.10^8 CFU/kg of feed.
[21] abbreviates: biological replicate MIC 2, 37° C., 20-24 h.
Where [22] appears, read: biological replicate MIC 3, 37° C., 20-24 h.

In brackets after ≈: the same amount, converted by molar mass. Like-named read-outs stand apart in the source and are kept apart here. Bridge positions count the residues as written; N and C are the ends. Square brackets hold non-standard residues; d marks the D form. Peptide text beside a SMILES is read from it. * marks the point of attachment. Ileψ(thiazoline)Cys = CC[C@H](C)[C@H](N)C1=N[C@H](C(=O)*)CS1; dOrn = NCCC[C@@H](N)C(=O)O

By MIC is commonly meant the lowest concentration that inhibits growth of the organism. Consider `O=C(N[C@H](CO)[C@H](O)c1ccc([N+](=O)[O-])cc1)C(Cl)Cl` [Chloramphenicol], for which the EFSA breakpoints in experiment [1], in experiment [2] and in experiment [3] was 8 µg/mL in each case. Further, the MIC in experiment [4] (setting [8]) turned out to be 4 µg/mL (≈ 12.4 µM); in experiment [4] (setting [9]) it was 4 µg/mL (≈ 12.4 µM); in experiment [4] (setting [10]) it was 4 µg/mL (≈ 12.4 µM); in experiment [5] (setting [11]) it was 4 µg/mL (≈ 12.4 µM); in experiment [5] (setting [12]), 8 µg/mL (≈ 24.8 µM); in experiment [5] (setting [13]) it was 4 µg/mL (≈ 12.4 µM). The MIC in experiment [6] (setting [14]) turned out to be 8 µg/mL (≈ 24.8 µM); in experiment [6] (setting [15]), 4 µg/mL (≈ 12.4 µM); in experiment [6] (setting [16]), 8 µg/mL (≈ 24.8 µM).
With `CCC[C@@H]1C[C@@H](C(=O)N[C@@H]([C@H]2O[C@H](SC)[C@H](O)[C@@H](O)[C@H]2O)[C@H](C)Cl)N(C)C1` [Clindamycin], the minimal inhibitory concentration (MIC) came to 1 µg/mL (≈ 2.35 µM) in experiment [4] (setting [8]); 0.5 µg/mL (≈ 1.18 µM) in experiment [4] (setting [9]); 1 µg/mL (≈ 2.35 µM) in experiment [4] (setting [10]); 0.25 µg/mL (≈ 0.588 µM) in experiment [5] (setting [11]); 0.25 µg/mL (≈ 0.588 µM) in experiment [5] (setting [12]); 0.25 µg/mL (≈ 0.588 µM) in experiment [5] (setting [13]). For the same compound, the minimum inhibitory concentration (MIC) is 0.5 µg/mL (≈ 1.18 µM) in experiment [6] (setting [14]), 0.25 µg/mL (≈ 0.588 µM) in experiment [6] (setting [15]) and 0.5 µg/mL (≈ 1.18 µM) in experiment [6] (setting [16]).
`CC[C@H]1OC(=O)[C@H](C)[C@@H](O[C@H]2C[C@@](C)(OC)[C@@H](O)[C@H](C)O2)[C@H](C)[C@@H](O[C@@H]2O[C@H](C)C[C@H](N(C)C)[C@H]2O)[C@](C)(O)C[C@@H](C)C(=O)[C@H](C)[C@@H](O)[C@]1(C)O` [Erythromycin]: the EFSA breakpoints in experiment [1], in experiment [2] and in experiment [3] was 4 µg/mL each time. The minimum inhibitory concentration (MIC) was found to be 0.5 µg/mL (≈ 0.681 µM) in experiment [4] (setting [8]); 0.06 µg/mL (≈ 0.0818 µM) in experiment [4] (setting [9]); 0.06 µg/mL (≈ 0.0818 µM) in experiment [4] (setting [10]); 0.125 µg/mL (≈ 0.17 µM) in experiment [5] (setting [11]); 0.125 µg/mL (≈ 0.17 µM) in experiment [5] (setting [12]); 0.125 µg/mL (≈ 0.17 µM) in experiment [5] (setting [13]). Moreover, the minimum inhibitory concentration (MIC) in experiment [6] (setting [14]), in experiment [6] (setting [15]) and in experiment [6] (setting [16]) was 0.125 µg/mL (≈ 0.17 µM) throughout.
In the case of `NC[C@H]1O[C@H](O[C@H]2[C@H](O)[C@@H](O[C@H]3O[C@H](CO)[C@@H](O)[C@H](N)[C@H]3O)[C@H](N)C[C@@H]2N)[C@H](O)[C@@H](O)[C@@H]1O` [Kanamycin], the minimal inhibitory concentration (MIC) was 2 µg/mL (≈ 4.13 µM) in experiment [4] (setting [8]); 0.5 µg/mL (≈ 1.03 µM) in experiment [4] (setting [9]); 0.5 µg/mL (≈ 1.03 µM) in experiment [4] (setting [10]); 2 µg/mL (≈ 4.13 µM) in experiment [5] (setting [11]); 1 µg/mL (≈ 2.06 µM) in experiment [5] (setting [12]); 2 µg/mL (≈ 4.13 µM) in experiment [5] (setting [13]). Besides, the MIC stood at 2 µg/mL (≈ 4.13 µM) in experiment [6] (setting [14]), 1 µg/mL (≈ 2.06 µM) in experiment [6] (setting [15]) and 2 µg/mL (≈ 4.13 µM) in experiment [6] (setting [16]).
For `[H]/N=C(/N)N[C@H]1[C@H](O)[C@@H](O)[C@H](O[C@@H]2O[C@@H](C)[C@](O)(C=O)[C@H]2O[C@@H]2O[C@@H](CO)[C@H](O)[C@@H](O)[C@@H]2NC)[C@@H](N/C(N)=N\[H])[C@@H]1O` [Streptomycin], the EFSA breakpoints in experiment [1], in experiment [2] and in experiment [3] was 8 µg/mL each time. Besides, the minimal inhibitory concentration (MIC) in experiment [4] (setting [8]) is 2 µg/mL (≈ 3.44 µM); in experiment [4] (setting [9]), 4 µg/mL (≈ 6.88 µM); in experiment [4] (setting [10]), 4 µg/mL (≈ 6.88 µM); in experiment [5] (setting [11]), 4 µg/mL (≈ 6.88 µM); in experiment [5] (setting [12]), 4 µg/mL (≈ 6.88 µM); in experiment [5] (setting [13]), 8 µg/mL (≈ 13.8 µM). Moreover, the MIC in experiment [6] (setting [14]) worked out at 32 µg/mL (≈ 55 µM); in experiment [6] (setting [15]), 16 µg/mL (≈ 27.5 µM); in experiment [6] (setting [16]), 32 µg/mL (≈ 55 µM).
For the compound `CN(C)[C@@H]1C(O)=C(C(N)=O)C(=O)[C@@]2(O)C(O)=C3C(=O)c4c(O)cccc4[C@@](C)(O)[C@H]3C[C@@H]12` [Tetracycline], the minimal inhibitory concentration (MIC) in experiment [4] (setting [8]) was determined as 16 µg/mL (≈ 36 µM); in experiment [4] (setting [9]) it was 8 µg/mL (≈ 18 µM); in experiment [4] (setting [10]), 8 µg/mL (≈ 18 µM); in experiment [5] (setting [11]), 0.25 µg/mL (≈ 0.563 µM); in experiment [5] (setting [12]) it was 0.25 µg/mL (≈ 0.563 µM); in experiment [5] (setting [13]), 0.25 µg/mL (≈ 0.563 µM). Moreover, the figures for the MIC in experiment [6] (setting [14]), in experiment [6] (setting [15]) and in experiment [6] (setting [16]) were 2 µg/mL (≈ 4.5 µM), 4 µg/mL (≈ 9 µM) and 4 µg/mL (≈ 9 µM), respectively. In experiment [4] (setting [17]), the “MIC 1” value is 16 µg/mL (≈ 36 µM).
Take `CN[C@H](CC(C)C)C(=O)N[C@H]1C(=O)N[C@@H](CC(N)=O)C(=O)N[C@H]2C(=O)N[C@H]3C(=O)N[C@H](C(=O)N[C@H](C(=O)O)c4cc(O)cc(O)c4-c4cc3ccc4O)[C@H](O)c3ccc(c(Cl)c3)Oc3cc2cc(c3O[C@@H]2O[C@H](CO)[C@@H](O)[C@H](O)[C@H]2O[C@H]2C[C@](C)(N)[C@H](O)[C@H](C)O2)Oc2ccc(cc2Cl)[C@H]1O` [Vancomycin]: the EFSA breakpoints in experiment [1], in experiment [2] and in experiment [3] was 4 µg/mL in each case. Further, the MIC worked out at 0.25 µg/mL (≈ 0.173 µM) in experiment [4] (DSM29869, read-out: MIC 2); 0.25 µg/mL (≈ 0.173 µM) in experiment [4] (setting [8]); 0.25 µg/mL (≈ 0.173 µM) in experiment [4] (setting [10]); 0.25 µg/mL (≈ 0.173 µM) in experiment [5] (DSM29870, read-out: MIC 2); 0.25 µg/mL (≈ 0.173 µM) in experiment [5] (DSM29870, read-out: MIC 3); 0.25 µg/mL (≈ 0.173 µM) in experiment [5] (setting [11]). Also, the MIC in experiment [6] (DSM29871, read-out: MIC 2) was found to be 0.25 µg/mL (≈ 0.173 µM); in experiment [6] (DSM29871, read-out: MIC 3), 0.25 µg/mL (≈ 0.173 µM); in experiment [6] (setting [14]), 0.25 µg/mL (≈ 0.173 µM).
As for `CC[C@H](C)[C@H](N)C1=N[C@H](C(=O)N[C@@H](CC(C)C)C(=O)N[C@H](CCC(=O)O)C(=O)N[C@H](C(=O)N[C@H]2CCCCNC(=O)[C@H](CC(N)=O)NC(=O)[C@@H](CC(=O)O)NC(=O)[C@H](Cc3cnc[nH]3)NC(=O)[C@@H](Cc3ccccc3)NC(=O)[C@H]([C@@H](C)CC)NC(=O)[C@@H](CCCN)NC2=O)[C@@H](C)CC)CS1` [bacitracin] ({Ileψ(thiazoline)Cys}-L[dE]IK[dOrn]I[dF]H[dD]N; lactam 4-C), in experiment [7] (setting [18]), the “Lesion score (d 21)” value came out at 0.2a, the “BWG (g/bird) (d 1-d 28)” value was found to be 633ab g/bird, the “Dead birds with necrotic enteritis lesions (%) (d 1-d 28)” value (“Dead birds … (%) (d 1-d 28)” for short) is given as 1.6b % and the “FCR (d 1-d 28)” value is on record as 1.813bc. In addition, the “Total mortality (%) (d 1-d 28)” value in experiment [7] (setting [18]) stood at 5.0b %. For the same compound, in experiment [7] (setting [19]), the “Lesion score (d 21)” value was determined as 0.6b, the “BWG (g/bird) (d 1-d 28)” value is on record as 665ab g/bird, the “Dead birds … (%) (d 1-d 28)” value is 6.3c % and the “FCR (d 1-d 28)” value is given as 1.759b. In addition, the “Total mortality (%) (d 1-d 28)” value in experiment [7] (setting [19]) was determined as 12.5bc %. In experiment [7] (setting [20]), the “Lesion score (d 21)” value is listed as 0.6a, the “BWG (g/bird) (d 1-d 28)” value was 645a g/bird, the “Dead birds … (%) (d 1-d 28)” value turned out to be 4.7bc % and the “FCR (d 1-d 28)” value turned out to be 1.786bc. Also, the “Total mortality (%) (d 1-d 28)” value in experiment [7] (setting [20]) was 15.0a %.
As to Gentamycin, the EFSA breakpoints in experiment [1], in experiment [2] and in experiment [3] was 4 µg/mL throughout. The “MIC 1” value in experiment [4] (setting [17]) is 0.5 µg/mL; in experiment [5] (setting [17]), 0.25 µg/mL; in experiment [6] (setting [17]) it was 0.25 µg/mL. In addition, the “MIC 2” value in experiment [4] (setting [21]), in experiment [5] (setting [21]) and in experiment [6] (setting [21]) was 0.125 µg/mL each time. Further, the “MIC 3” value in experiment [4] (setting [22]) worked out at 0.06 µg/mL; in experiment [5] (setting [22]), 0.25 µg/mL; in experiment [6] (setting [22]), 0.25 µg/mL.
